Measurements as given in US20230026869A1, “CRYSTAL FORM OF NUCLEOPROTEIN INHIBITOR AND USE THEREOF” (CHIA TAI TIANQING PHARMACEUTICAL GROUP CO., LTD., priority 2019, published 2023).

Key:
[1] = Metabolic stability in CD-1 mice liver microsomes; assay type: in vitro ADME
Method: (§1) Objective: The metabolic stability of the test compound in CD-1 mice and human liver microsomes was determined. […]

[2] = Experiment on cytotoxicity (CellTiter-Glo, 3 days); assay type: cell-based; details: 3 days incubation, read-out: 50% cytotoxic concentration (CC50)
Method: • 1. The compound was diluted with DMSO (dimethyl sulfoxide) in a 3-fold gradient for 9 concentrations, and added into a 96-well plate in duplicate. The compound concentration was 200-fold of the final test concentration. • 2. The cells were rinsed with PBS (phosphate buffered saline) once, added with 0.25% trypsin and digested for about 2-5 min in a 37° C., 5% CO2 incubator. Then the digestion was terminated with a cell culture medium and the cells were dispersed into single cells by pipetting with a pipettor. • 3. The cell density was counted with a cell counter, and adjusted to the required density with the medium. • 4. The cells were added into a 96-well plate that had been added with the compound. The final concentration of DMSO in each well was 0.5%. Wells containing 0.5% DMSO were used as non-toxic negative controls, and wells containing the cell culture medium were used as 100% cytotoxicity controls. Then the cell plate was incubated in a 37° C., 5% CO2 cell incubator for 3 days. • 5. The chemiluminescence signal (RLU, relative chemiluminescence unit) of each well in the cell plate was detected with the cell viability detection kit CellTiter-Glo using the multi-functional microplate reader Envision, with instructions on the kit followed. • 6. The raw data (RLU) were substituted into the following formula to calculate the cell viability of each well (cell viability %): […]

[3] = molecular target: T1, CYP3A4 (Homo sapiens, UniProt P08684); assay: Inhibition of human liver microsomal cytochrome P450 isoenzyme CYP3A4; assay type: in vitro ADME; details: human liver microsomes
T1 construct: from tissue; host or cells: human liver microsomes
T1 sequence (P08684 whole entry): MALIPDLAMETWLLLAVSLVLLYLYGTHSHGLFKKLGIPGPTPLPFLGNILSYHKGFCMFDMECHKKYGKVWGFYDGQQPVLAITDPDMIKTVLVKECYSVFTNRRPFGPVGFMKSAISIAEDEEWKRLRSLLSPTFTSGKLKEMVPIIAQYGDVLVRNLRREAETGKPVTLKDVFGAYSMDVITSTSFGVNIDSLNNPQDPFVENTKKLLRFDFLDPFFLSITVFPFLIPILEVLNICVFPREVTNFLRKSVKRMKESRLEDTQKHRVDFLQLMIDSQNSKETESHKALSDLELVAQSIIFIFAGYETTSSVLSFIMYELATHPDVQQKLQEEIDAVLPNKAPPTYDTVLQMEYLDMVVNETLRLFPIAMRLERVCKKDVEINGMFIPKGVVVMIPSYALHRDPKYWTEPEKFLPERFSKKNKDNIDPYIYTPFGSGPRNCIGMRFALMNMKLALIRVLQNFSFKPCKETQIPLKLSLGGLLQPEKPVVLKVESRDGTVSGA
Method: Objective: The inhibitory effect of the test compound on the activity of human liver microsomal cytochrome P450 isoenzymes (CYP1A2, CYP2C9, CYP2C19, CYP2D6 and CYP3A4) was determined. […]

[4] = Metabolic stability in human liver microsomes; assay type: in vitro ADME
Method: as §1

CC1(NC(=O)C(=O)c2c(Cl)c(C(=O)Nc3cc(F)c(F)c(F)c3)c3n2CCC3)CCC(CC(=O)O)CC1 (centres unmarked) [Compound of formula (I)]
microsomal CLint at 1 μM ([1]; CD-1, mouse, microsomes): < 9.6 µL/min/mg | CLint scaled at 1 μM ([1]; mouse, CD-1 mice liver microsomes): < 38 mL/min/kg | half-life at 1 μM ([1]; mouse, CD-1 mice liver microsomes, 1 μM compound, 0.5 mg/mL): > 2.42 h | CC50 at 3 days [2]: > 50 µM | IC50 [3]: > 50 µM | half-life at 1 μM ([4]; Human liver microsomes, 1 μM compound, 0.5 mg/mL): > 2.42 h | CLint scaled at 1 μM ([4]; human liver microsomes): < 8.6 mL/min/kg | microsomal CLint at 1 μM ([4]; human, microsomes): < 9.6 µL/min/mg
